According to paper PMC4418665, “Cyclization of the Urokinase Receptor-Derived Ser-Arg-Ser-Arg-Tyr Peptide Generates a Potent Inhibitor of Trans-Endothelial Migration of Monocytes” (PLoS ONE, 2015):
Peptide text beside a SMILES is read from it.

System: primary macrophages
Assay: Primary macrophage migration in DUNN chamber
Format: cell-based, human
Conditions: 10 nM peptide added to 10 nM fMLF gradient, 6 hours
Description: The ability of [SRSRY] peptide to affect THP-1 cell migration was analyzed in Boyden chambers using 10 nM fMLF or 10 nM SRSRY as chemoattractants. […] Inhibitory effect of [SRSRY] is dose-dependent, it starts in the high fM range, it seems to level off in the μM range and reaches an overall 50% reduction at 10 pM (Fig 4B). […] The mechanisms by which monocytes move when subjected to a chemoattractant gradient, involve changes in cytoskeletal organization, which provide both protrusive and contractile forces necessary for cell migration. […] A total of 100 cells/sample that translocated to the area corresponding to the ring separating the inner and outer chambers were counted and their cytoskeletal organization examined with a fluorescence-inverted microscope. […] After 6 hours incubation, a total of 100 cells/sample that translocated to the area corresponding to the ring separating the inner and outer chambers were counted. […] Data are expressed as the means ± SD of three independent experiments, performed in duplicate. *Statistical significance against None with p<0.001. […] The extent of cell migration was expressed as a percentage of the net fMLF-dependent cell migration, considered as 100%. Data are expressed as the means ± SD of three independent experiments, performed in duplicate. […]

N=C(N)NCCC[C@@H]1NC(=O)[C@H](CO)NC(=O)[C@H](Cc2ccc(O)cc2)NC(=O)[C@H](CCCNC(=N)N)NC(=O)[C@H](CO)NC1=O [[SRSRY], [Ser-Arg-Ser-Arg-Tyr]] (cyclo(RSRYS))
effect on fMLF-directed migration of primary macrophages: reduced migration of primary macrophages to the basal level
